Reference: patent publication US20010019832A1, “Methods for identification using U0126” (priority 2000, published 2001)

Columns and labels:
L6 cells [1] = assay: Glucose uptake rate in L6 cells; type: cell-based, rat; settings: 5 mM glucose; for Glucose uptake rate: U0126 10 μM or PD98059 10 μM for 20 h, insulin 176 nM 1 h before
Procedure: (§1) Glucose uptake was determined as described by Hundal et al. (1994) Biochem. J. 297: 289-295. Briefly, after incubation with insulin for one hour, cell monolayers were rinsed with glucose-free PBS. Glucose uptake was quantified by incubating the cells in the presence of 1 μCi/ml ^3H-2-deoxy-glucose in PBS for 8 min. Uptake of 2-deoxy-glucose was terminated by rapidly aspirating the medium, followed by two successive washes of cell monolayers with ice cold PBS. The cells were lysed in 0.5 M NaOH, followed by liquid scintillation counting. Rates of transport were normalized for protein content in each well.
Glucose uptake rate in L6 cells, in the presence of 5 mM glucose, was determined. The cells were incubated in serum-free medium supplemented with U0126 (10 μM), PD98059 (10 μM) or wortmannin (100 nM) for 20 h. Insulin (176 nM) was added 1 h before the determination of glucose uptake rate. Glucose uptake was determined as described above.

MEK½ = settings: Favata et al. 1998; cited from earlier work
INS-1 cells = settings: U0126 10 μM, 24 hours
Procedure: Insulin secretion in INS-1 cells was determined. INS-1 cells were seeded in 24-well plates. Thirty minutes before assay the glucose concentration was decreased to 2.8 mM. After the incubation in low glucose medium, glucose (up to 16 mM) or U0126 (10 μM) were added. After 24 hours, samples were collected and analyzed in the rat insulin ELISA.

[2] = system: human skeletal muscle cells (hSkMC); assay: Glucose uptake rate in human skeletal muscle cells; type: cell-based; settings: 5 mM glucose, insulin 176 nM or U0126 10 μM added 30 min before
Procedure: as §1
Glucose uptake rate in human skeletal muscle cells (hSkMC), in the presence of 5 mM glucose, was determined. The cells were incubated in serum-free medium (PromoCell) for 2 h. Insulin (176 nM) or U0126 (10 μM) were added 30 min before determination of glucose uptake rate.

SH-SY5Y cells = assay: Glucose uptake rate in SH-SY5Y cells; type: cell-based, human; settings: 5 mM glucose, U0126 10 μM or insulin 176 nM added 1 h before
Procedure: as §1
Glucose uptake rate in SH-SY5Y cells in the presence of 5 mM glucose was determined. The cells were incubated in serum-free medium over night. Approximately 20 h later U0126 (10 μM), wortmannin (100 nM) or insulin (176 nM) were added, 1 h before the determination of glucose uptake rate.

L6 cells [3] = assay: Palmitate oxidation in L6 cells (14CO2 trapping); type: cell-based, rat; settings: for Palmitate oxidation in the presence of 5 mM glucose: data not shown
Description: (§2) The principle of the used glucose/free fatty acid, (FFA) oxidation assay is based on the fact that one of the final products along metabolic pathways of these two substrates is carbon dioxide. Since the substrates are uniformly ^14C labeled, the radioactivity in carbon dioxide trap is a direct measure of metabolic activity in studied cells (Rodbell, M. (1964) J. Biol. Chem. 239: 375-380).
(§3) As further described in International Patent Application No. PCT/SE00/02680, filed Dec. 27, 2000, cells were cultivated until sub-confluence in T-25 Costar flasks. Prior to the experiment, the cells were deprived of serum for 6 hours in DMEM medium containing 5 mM glucose. 3 ml of medium supplemented with (U-^14C)-glucose or (U^14C)-palmitic acid (0.2 μCi/ml) were added to each flask. A filter paper (1.5×5.5 cm) soaked in hyamine solution was rolled up, blotted on a paper towel to remove excess of fluid, and placed carefully into the tube of the device described in International Patent Application No. PCT/SE00/02680. The tube was mounted in the flasks, the screw caps were tightened and cells were incubated at 37° C. for a suitable time period. The reaction was terminated by adding sulfuric acid to the culture medium and the cells were incubated for additional 60 min. The filter paper was removed, cut into small pieces and transferred to scintillation vials. Methanol (0.2 ml) was added to each vial to increase the solubility of hyamine-CO2 in the scintillation fluid. Finally the radioactivity was measured. The remaining cells were washed briefly with ice cold PBS, solubilized with 1 M KOH and the protein content was determined by the Bradford method (Bradford, M. M. (1976) Anal. Biochem. 72: 248-254).
In a cell system, insulin resistance can be provoked experimentally by raising the concentrations of glucose, fat or both in the medium, or by treating the cells with the cytokine Tumor Necrosis Factor alpha (TNF alpha) before insulin stimulation. […] Palmitate oxidation was determined as described in “Experimental methods”. […]

PKB = PKB activity in L6 cells; type: cell-based, rat; settings: differentiated L6 cells, incubated 10 min
AP-1 = settings: Duncia et al. 1998; cited from earlier work
L6 cells [4] = assay: Glucose oxidation in L6 cells (14CO2 trapping); type: cell-based, rat; settings: 5 mM glucose; for Glucose oxidation: insulin 176 nM or U0126 10 μM added 1 h before
Description: as §2, §3
Glucose oxidation in L6 cells in the presence of 5 mM glucose was determined as described in “Experimental Methods”. One hour prior to determination of glucose oxidation, insulin or U0126 was added to a concentration of 176 nM or 10 μM, respectively.

Molecule | Glucose uptake rate, U0126 and insulin incubated together (L6 cells [1]; U0126 10 μM 20 h plus insulin 176 nM 1 h) | Glucose uptake rate (L6 cells [1]) | Inhibition of MEK½ (MEK½) | Insulin secretion (INS-1 cells) | Glucose uptake rate [2] | Glucose uptake rate (SH-SY5Y cells) | Palmitate oxidation in the presence of 5 mM glucose (L6 cells [3]) | Palmitate oxidation during insulin resistant conditions (L6 cells [3]; 12 mM glucose and 480 μM palmitate for 20 hours, U0126 10 μM 1 h before) | PKB activity (PKB) | Inhibition of AP-1 transactivation (AP-1) | Glucose oxidation, U0126 and insulin incubated together (L6 cells [4]; U0126 10 μM plus insulin 176 nM) | Glucose oxidation (L6 cells [4])
N#CC(=C(N)Sc1ccccc1N)C(C#N)=C(N)Sc1ccccc1N [U0126, 1,4-diamino-2,3-dicyano-1,4-bis [2-aminophenylthio] butadiene] | no further increase compared to U0126 alone | increased glucose uptake | specifically inhibits MEK½ in both the inactive and active forms | increased insulin secretion | increase glucose uptake | increased glucose uptake | decreased palmitate oxidation | decreased palmitate oxidation | no effect | inhibitor of AP-1 transactivation | A small increase | increased glucose oxidation
insulin: Bovine insulin purchased from Gibco Laboratories |  | increased glucose uptake |  |  | increase glucose uptake | increased glucose uptake | decreased palmitate oxidation |  | increased PKB activity three-fold |  |  | increased glucose oxidation
